Results on 2 compounds are retold here after patent US8097709B2, “Macrolactam compounds” (Novobiotic Pharmaceuticals, Inc., priority 2007, dated 2012).

Series [1] deals with NIH3T3 mouse embryonic fibroblasts. Kind of series: Mammalian cytotoxicity assay (CellTiter 96 AQueous One Solution). In kind it is cell-based. To be noted: NIH3T3 cells, 24 hr exposure; concentration with 50% of control signal. As for the experimental part:
Mammalian cytotoxicity assays were performed using NIH3T3 mouse embryonic fibroblasts (ATCC CRL-1658), and cytotoxicity was measured using the CellTiter 96® AQueous One Solution Cell Proliferation Assay (Promega, Madison, Wis., Cat: G3582), according to the manufacturer's recommendations.
A control of DMSO was also included (wells in column A01, and A12).
An exponentially growing population of NIH/3T3 mouse embryonic fibroblast cells was trypsinized into single cell suspension and seeded at 3000 cells per 100 μl in all wells, except column 11 and 12 of a sterile 96-well flat bottom plate. […]
The plate was visually inspected under a dissecting microscope, and the absorbance at 490 nm was read using a Spectramax Plus Spectrophotometer, with wells A12, and B12 reserved as blanks (FIG. 3). The signal of compound alone (well All) was verified not to contribute to the absorbance at this wavelength. Next, 20 μl of the CellTiter 96® AQueous One Solution Cell Proliferation Assay (Promega, Madison, Wis., Cat: G3582) was added to each well, and the plate was read after 3 hr of incubation. […]

For series [2], the system named is MRSA NRS108. The experiment in a line: Growth inhibition on solid agar (5 μl spot on bacterial lawn). In kind it is cell-based, Staphylococcus aureus. To be noted: minimal concentration giving observable zone of no growth, MHB agar.
Series [3] deals with B. subtilis 1A1. The experiment in a line: Minimal Inhibitory Concentration in broth. The conditions noted are these: Bacillus subtilis, 1A1, B. subtilis 1A1.
For another series, the system named is C. difficile 2001. The experiment in a line: Minimal Inhibitory Concentration in broth. Format: cell-based. To be noted: Clostridioides difficile, 2001, C. difficile 2001.
The subject of series [4] is E. faecalis ATCC 51299 (VRE). Kind of series: Growth inhibition on solid agar (5 μl spot on bacterial lawn). Format: cell-based. To be noted: minimal concentration giving observable zone of no growth, MHB agar.
The test system of series [5] is E. faecalis ATCC 51575 (VRE). Described as above. The conditions noted are these: minimal concentration giving observable zone of no growth, MHB agar. In kind it is cell-based.
The test system of another series is MSSA 29213. The experiment in a line: Minimal Inhibitory Concentration in broth. In kind it is cell-based. The conditions noted are these: Staphylococcus aureus.
Series [6] relates to MRSA NRS108. Kind of series: Minimal Inhibitory Concentration in broth. The conditions noted are these: Staphylococcus aureus.
A further series relates to E. faecalis BM4147 (VRE). The experiment in a line: Growth inhibition on solid agar (5 μl spot on bacterial lawn). In kind it is cell-based. To be noted: minimal concentration giving observable zone of no growth, MHB agar.
For a further series, the system named is MSSA 33591. The experiment in a line: Minimal Inhibitory Concentration in broth. The conditions noted are these: Staphylococcus aureus. Format: cell-based.
Another series has as its system C. difficile 196. Kind of series: Minimal Inhibitory Concentration in broth. Format: cell-based. To be noted: Clostridioides difficile, MHB + 0.05% BSA.
The test system of series [7] is B. subtilis 1A1. Kind of series: Growth inhibition on solid agar (5 μl spot on bacterial lawn). In kind it is cell-based. The conditions noted are these: minimal concentration giving observable zone of no growth, MHB agar.
For the next series, the system named is MRSA NRS1. Described as above. The conditions noted are these: minimal concentration giving observable zone of no growth, MHB agar. In kind it is cell-based, Staphylococcus aureus.
The test system of a further series is B. anthracis Sterne. In kind it is cell-based. The conditions noted are these: minimal concentration giving observable zone of no growth, MHB agar.
For the next series, the system named is human red blood cells. Format: cell-based. As for the experimental part: The effect of NOVO3 on the hemolysis of human red blood cells was also tested. A total of 10 ml of expired packed red blood cells from the blood bank was gently added to 80 ml of PBS (Phosphate buffered saline), and pelleted at 1000 g for 5 minutes at 4° C. The upper phase and buffy layer (white blood cells) were removed. The cells are repeatedly washed by gentle mixing with PBS, and centrifugation until the upper phase is clear. In the last wash, 40 ml of 1×PBS with 0.05% BSA was added to half of the red blood cells while 40 ml of 1×PBS without BSA was added to the other half. The upper phase of the last wash was removed to leave a total volume of about 10 ml. The concentration of the red blood cells was measured by using the spectrophometer at 600 nm. […]
The compound NOVO3 is two-fold serially diluted (similar to that described above for mammalian NIH3T3 cytotoxicity assay) as 100× concentration in DMSO, ranging from 12.5 μg/ml to 3200 μg/ml. […] After thorough mixing, the absorbance at 450 nm was read using a Spectramax Plus Spectrophotometer, with wells A12, and B12 reserved […], using wells with only 1×PBS as blanks.
The absorbance at 450 nm measured the amount of hemoglobin released by the lysis of red blood cells (FIG. 4). […]

Converted amounts (≈) assume the structure as drawn.

By MIC is commonly meant the least concentration at which growth counts as inhibited. As to `CC1/C=C/C=C\C=C\CC(C)C(OC2OC(C)C(O)C(N)C2O)C\C=C/C=C/C=C\C(=O)NC1` (stereo not shown) [NOVO3], the LD50 in [1] is over 32 µg/mL. Moreover, the “Growth Inhibition with 5 μl of NOVO3” value turned out to be 1.25 µg/mL with MRSA NRS108 [2]; 1.25 µg/mL in [4]; 5 µg/mL in [5]; 1.25 µg/mL in the series with E. faecalis BM4147 (VRE); 0.125 µg/mL in the series with B. subtilis 1A1 [7]; 1.25 µg/mL in the series on MRSA NRS1. In the series on B. anthracis Sterne, the “Growth Inhibition with 5 μl of NOVO3” value was 1.25 µg/mL. Further, the MIC against B. subtilis 1A1 [3] (MHB (Table 3)) is 3 ± 1.3 µg/mL (≈ 6.35 µM); in the series with B. subtilis 1A1 [3] (MHB (Table 4, serum study)) it was 3 ± 1.3 µg/mL (≈ 6.35 µM); with B. subtilis 1A1 [3] (MHB + 0.02% Tween 80), 0.25 µg/mL; with B. subtilis 1A1 [3] (MHB + 0.05% BSA), 0.166 ± 0.08 µg/mL; in the series with B. subtilis 1A1 [3] (MHB + 10% Calf Bovine Serum), 0.144 µg/mL; in the series on B. subtilis 1A1 [3] (MHB + 10% human serum) it was 0.125 µg/mL. For the same compound, the MIC in the series with B. subtilis 1A1 [3] (MHB + 10% mouse serum) was 0.125 µg/mL; in the series on B. subtilis 1A1 [3] (MHB + 40% Calf Bovine Serum), 0.125 µg/mL; against C. difficile 2001 (MHB), 32 µg/mL (≈ 67.7 µM); with C. difficile 2001 (MHB + 0.05% BSA), 8 µg/mL; against MSSA 29213 (MHB), 8 µg/mL (≈ 16.9 µM); with MSSA 29213 (MHB + 0.05% BSA), 0.25 µg/mL. The MIC was 8 µg/mL (≈ 16.9 µM) against MRSA NRS108 [6] (MRSA NRS108, MHB (Table 3)); 4 to 8 µg/mL (≈ 8.46 to 16.9 µM) in the series with MRSA NRS108 [6] (MRSA NRS108, MHB (Table 4B, serum study)); 0.25 to 0.5 µg/mL in the series on MRSA NRS108 [6] (MRSA NRS108, MHB + 0.05% BSA); 0.25 to 0.5 µg/mL in the series on MRSA NRS108 [6] (MRSA NRS108, MHB + 10% Calf Bovine Serum); 0.25 µg/mL in the series with MRSA NRS108 [6] (MRSA NRS108, MHB + 40% Calf Bovine Serum); 0.25 µg/mL (≈ 0.529 µM) against MRSA NRS108 [6] (MRSA|NRS108, MRSA NRS108, GM (Dulbecco's Modified Eagle's medium with 10% bovine calf serum)). Besides, the figures for the MIC against MSSA 33591 (MHB), with MSSA 33591 (MHB + 0.05% BSA) and in the series with C. difficile 196 were 8 µg/mL (≈ 16.9 µM), 0.25 µg/mL and 8 µg/mL, respectively. For the same compound, the hemolysis result in the series on human red blood cells is reported as “no significant hemolysis”.

Triton X100 [reference compound]: the “absorbance at 450 nm (hemoglobin released)” value in the series with human red blood cells was 0.41.
